The text below walks through data of patent US9879050B2, “Substituted urea depsipeptide analogs as activators of the CLPP endopeptidase” (priority 2013, dated 2018).

By EC50 is commonly meant the concentration that produces a half-maximal response. By IC50 is commonly meant the concentration at which inhibition is half-maximal.

The target of data set [1] is T1, Sa-ClpP (Staphylococcus aureus, UniProt Q2G036).
T1 construct: made in house; host or cells: E. coli BL21 (DE3)
The data set is described as follows: ClpP activation, EnzCheck Protease Assay with Bodipy-FL casein (second described method). Format: biochemical, S. aureus. How it is done:
Alternatively, the assay was carried out using EnzCheck Protease Assay (Molecular Probes, Catalog #E6638). The assay was performed in black 384 well, flat bottom, low volume plates (Greiner Bio-One, Monroe, N.C., catalog #784076). 10 μL of Tris.HCl buffer, pH 8.0 with 0.01% Triton X-100 was pipetted into each well using a Well-Mate (Thermo Scientific, Waltham, Mass.). 0.4 μL test compounds or controls (2% DMSO v/v) were added to each well using a Biomek FX liquid handling robot (Beckman Coulter, Indianapolis Ind.). After addition of test compounds and controls, 10 μL of master mix containing 2 μM Sa-ClpP and 2 μM substrate (Bodipy-FL labeled casein) in Tris*HCl buffer, pH 8.0 with 0.01% (v/v) Triton X-100, was pipetted into each well. All assays were performed in triplicate, under linear velocity conditions. Increase in fluorescent signal following activation of Sa-ClpP by test compounds and controls was measured over time period of 30 mins using filters with excitation at 485±15 nm and emission at 520±25 nm on a PHERAstar FS Multilabel reader (BMG, Cary, N.C.). […] Data analysis was done by measuring rate of casein degradation over time (slopes). Computed degradation rates (slopes) were normalized to positive (ADEP4) or negative (DMSO) controls. Using nonlinear regression curve fitting EC50 values and % activation were determined using the equation “log [agonist]vs. Response-variable slope (four parameters)-symmetrical” in the program Prism 6 (GraphPad Software, La Jolla, Calif. USA, www.graphpad.com).

For data set [2], the target named is T1, Sa-ClpP. The data set is described as follows: ADEP displacement fluorescence polarization assay. Format: binding, S. aureus. How it is done:
A fluorescence polarization (FP) assay was used to determine the activity of the disclosed compounds in displacing an ADEP analogue from ClpP. Briefly, the assay was performed in black 384 well, flat bottom, low volume plates (Greiner Bio-One, Monroe, N.C., catalog #784076). 20 μL of a pre-equilibrated (1 hr, room temperature) master mix (1 μM Sa-ClpP, 2% DMSO (v/v) and 50 nM FP probe in Tris*HCl, pH 8.0)) was pipetted into each well using a Well-Mate (Thermo Scientific, Waltham, Mass.). Sa-ClpP was prepared as described above for the ClpP activation assay. The FP probe was ADEP 2591 (structure shown above). The ADEP 2591 comprises a TAMRA fluorophore linked to a core based on modified ADEP 2378 via a short alkyl linker. Using pin transfer, approximately 0.4 μL (2% v/v DMSO) of each compound or control was added per well. After addition of compounds and controls, plates were allowed to incubate for an additional 120 minutes at room temperature. All assays were performed in triplicate. Polarization was monitored using an EnVision Multilabel reader (Perkin-Elmer, Waltham, Mass.) by exciting the FP probe at 530±25 nm, and monitoring fluorescence intensity of both parallel and perpendicular polarized light at 579±25 nm. Readout was in millipolarization units (mP).
Signal gain and G factors were determined in wells containing 20 μM ADEP 2378, which had been previously verified (data not shown) as containing completely unbound ADEP 2591. Data collected was normalized to values obtained from positive (20 μM ADEP 2378) or negative (DMSO) controls. Curves were fit with non-linear regression using the equation “log [inhibitor]vs. Response-variable slope (four parameters)-symmetrical” in the program Prism 6 (GraphPad Software, La Jolla, Calif. USA, www.graphpad.com). The structures for ADEP 2378 and ADEP 2591 are shown above. ADEP 2378 is (E)-N-((S)-1-(((2R,6S,8aS,14aS,20S,23aS)-2,6-dimethyl-5,8,14,19,23-pentaoxooctadecahydro-1H,5H,14H,19H-pyrido[2,1-i]dipyrrolo[2,1-c:2′,1′-1][1]oxa[4,7,10,13]tetraazacyclohexadecin-20-yl)amino)-1-oxo-3-phenylpropan-2-yl)pent-2-enamide. ADEP 2591 is 5-(3-(3-((6S,9S,11aS,17S,20aS)-6,10-dimethyl-5,8,11,16,20-pentaoxo-17-((S)-2-((E)-pent-2-enamido)-3-phenylpropanamido)hexadecahydro-1H,5H,16H-dipyrrolo[2,1-c:2′,1′-1][1]oxa[4,7,10,13]tetraazacyclohexadecin-9-yl)propyl)thioureido)-2-(6-(dimethylamino)-3-(dimethyliminio)-3H-xanthen-9-yl)benzoate.
In general terms: Fluorescence polarisation rises when a labelled molecule tumbles more slowly, as on binding a larger partner.

Data set [3] has as its system S. aureus USA 300 ΔClpP. The data set is described as follows: Minimal inhibitory concentration, microbroth dilution. Format: cell-based, Staphylococcus aureus. The conditions noted are these: ClpP inactivated strain. How it is done:
Minimal inhibitory concentrations (“MICs”) were determined using the microbroth dilution method according to Clinical Laboratory Standards Institute (CLSI; National, C.F. C. L. S., Methods for Dilution Antimicrobial Susceptibility Tests for Bacteria Grow aerobically-Seventh Edition: Approved Standard M7-A7, CLSI, Wayne, Pa., USA, 2008) and were read by visual inspection. Two fold serial dilutions of test compound in 100 μL of the appropriate broth media were first prepared in 96-well round bottom microtiter plates (Nalgene Nunc International, Rochester, N.Y., USA). An equivalent volume (100 μL) of bacterial broth inocula containing approximately 10^5 bacterial cfu/mL was added to each well to give final concentrations of test compound starting at 200 μM. The plates were then incubated aerobically at 37° C. All strains were incubated overnight. After incubations, in all cases the MIC was recorded as the lowest concentration of drug that prevented bacterial growth. The bacterial strains for which MIC was determined as described in Table 4.
A general note: In broth dilution the organism is exposed to a series of concentrations in liquid medium.

A short description of data set [4]: Cytotoxicity assay, CellTiter-Glo cell viability. Format: cell-based. To be noted: African green monkey. How it is done:
Cytotoxicity was determined by determining the effect of compounds on cell viability. Vero (kidney epithelial cells; ATCC CCL-81) monolayers were trypsinized and 5000 cells/well were seeded (10-15% confluency) into white-wall, flat bottom 96 well microwell plates (Corning) using enriched Dulbecco's Modified Eagle's Medium (Hyclone: DMEM/High Glucose) containing 10% Fetal Bovine Serum (ATCC-30-2020). Plates were incubated overnight at 37° C. in the presence of 5% CO2. Drug-free media was then replaced with media containing serial dilutions of test compound or DMSO carrier. After an additional 72 hours of incubation, viability was indirectly measured using the CellTiter-Glo® Luminescent Cell Viability (Promega) assay. Assay plates were read at peak emission wavelength of 560 nm using a EnVision® Multilabel Plate Reader (Perkin Elmer) or PHERAstar FS Multilabel reader (BMG, Cary, N.C.). […] USA, www.graphpad.com]. For each experiment, compounds were tested in duplicate. IC50 values presented are the range of two biologically independent experiments.
In general terms: Cellular ATP, detected with luciferase, serves as a proxy for viable cell number.

Data set [5] concerns S. pneumoniae R6. The data set is described as follows: Minimal inhibitory concentration, microbroth dilution. It is filed as cell-based. As for the experimental part:
Minimal inhibitory concentrations (“MICs”) were determined using the microbroth dilution method according to Clinical Laboratory Standards Institute (CLSI; National, C.F. C. L. S., Methods for Dilution Antimicrobial Susceptibility Tests for Bacteria Grow aerobically-Seventh Edition: Approved Standard M7-A7, CLSI, Wayne, Pa., USA, 2008) and were read by visual inspection. Two fold serial dilutions of test compound in 100 μL of the appropriate broth media were first prepared in 96-well round bottom microtiter plates (Nalgene Nunc International, Rochester, N.Y., USA). […] The plates were then incubated aerobically at 37° C. All strains were incubated overnight. After incubations, in all cases the MIC was recorded as the lowest concentration of drug that prevented bacterial growth. The bacterial strains for which MIC was determined as described in Table 4.

Setting [6] is: Streptococcus pneumoniae, R6; read-out: Minimal Inhibitory Concentration S. pneumoniae R6.

Converted amounts (≈) assume the structure as drawn. Where two headings read alike, the source gives them in different places. *1 amine or outer side, *2 acyl side, *3 side chain or, on linkers, in order; H or OH if unused. Where a SMILES comes first, the peptide text is derived from it. Bridges are numbered along the chain shown (N, C = ends). [ ]: non-standard residue; d: D form. The star is where a group is joined. ξ: configuration not given here. Phe(3,5-F2) = N[C@@H](Cc1cc(F)cc(F)c1)C(=O)O; NH(4-OCF3-phenyl) = FC(F)(F)Oc1ccc(N*)cc1; ξPro(4S-Me) = C[C@@H]1CNC(C(=O)O)C1; aThr = C[C@H](O)[C@H](N)C(=O)O; X1 = O=C(C1COCCN1[*:1])[*:2]; CO = O=C([*:1])[*:2]; ξP = O=C(O)C1CCCN1

T1 sequence (Q2G036 whole entry): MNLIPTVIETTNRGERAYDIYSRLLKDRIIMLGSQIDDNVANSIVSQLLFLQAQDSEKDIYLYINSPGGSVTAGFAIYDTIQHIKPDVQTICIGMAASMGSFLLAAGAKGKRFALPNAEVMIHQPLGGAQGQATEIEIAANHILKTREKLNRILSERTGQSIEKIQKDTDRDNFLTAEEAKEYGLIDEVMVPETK

Take `C[C@@H]1NC(=O)[C@H](C)N(C)C(=O)C2CCCN2C(=O)[C@@H](NC(=O)[C@H](Cc2cc(F)cc(F)c2)NC(=O)Nc2ccc(OC(F)(F)F)cc2)[C@H](C)OC(=O)C2CCCN2C1=O` (stereo partly drawn) [Compound 27, (2S)-3-(3,5-Difluorophenyl)-N-((6S,9S,11aS,17S,18S)-6,9,10,18-Tetramethyl-5,8,11,16,20-Pentaoxohexadecahydro-1H,5H,16H-Dipyrrolo[2,1-C:2′,1′-L][1]Oxa[4,7,10,13]Tetraazacyclohexadecin-17-Yl)-2-(3-(4-(Trifluoromethoxy)Phenyl)Ureido)Propanamide]: the EC50 in data set [1] (read-out: ClpP Activation EC50 (converted)) was 0.31 ± 0.01 µM. Moreover, the IC50 in data set [2] (1 μM Sa-ClpP, 50 nM FP probe ADEP 2591, read-out: ADEP Displacement IC50) is 7.7 ± 0.2 µM. Further, in data set [3], the “Minimal Inhibitory Concentration S. aureus USA 300 ΔClpP” value was determined as 100 µM. This compound also showed an IC50 at 72 h in data set [4] of 10.5 ± 1.4 µM. For the same compound, the MIC in data set [5] (setting [6]) is 0.058 µM (≈ 0.0486 µg/mL).
With `C[C@H]1CC2C(=O)OC[C@H](NC(=O)[C@H](Cc3ccccc3)NC(=O)Nc3ccc(OC(F)(F)F)cc3)C(=O)N3CCCC3C(=O)N3CCCCC3C(=O)N[C@@H](C)C(=O)N2C1` (stereo partly drawn) [Compound 44, (S)—N-((2S,6S,8aS,14aS,20S,23aS)-2,6-Dimethyl-5,8,14,19,23-Pentaoxooctadecahydro-1H,5H,14H,19H-Pyrido[2,1-I]Dipyrrolo[2,1-C:2′,1′-L][1]Oxa[4,7,10,13]Tetraazacyclohexadecin-20-Yl)-3-Phenyl-2-(3-(4-(Trifluoromethoxy)Phenyl)Ureido)Propanamide], in data set [1], the EC50 amounted to 0.28 ± 0.01 µM. In data set [2], the IC50 came to 6.76 ± 0.3 µM. The “Minimal Inhibitory Concentration S. aureus USA 300 ΔClpP” value in data set [3] was found to be 50 µM. Also, the IC50 at 72 h in data set [4] (Vero kidney epithelial cells (ATCC CCL-81), Vero cells, 72 hours, read-out: Cytotoxicity IC50) amounted to 83.8 ± 6.6 µM. The MIC in data set [5] (setting [6]) worked out at 0.1 µM (≈ 0.0828 µg/mL).
Consider `C[C@H]1CC2C(=O)O[C@@H](C)[C@H](NC(=O)[C@H](Cc3cc(F)cc(F)c3)NC(=O)Nc3ccc(OC(F)(F)F)cc3)C(=O)N3CCCC3C(=O)N(C)[C@@H](C)C(=O)N[C@@H](C)C(=O)N2C1` (stereo partly drawn) [Compound 28, (2S)-3-(3,5-Difluorophenyl)-N-((2S,6S,9S,11aS,17S,18S)-2,6,9,10,18-Pentamethyl-5,8,11,16,20-Pentaoxohexadecahydro-1H,5H,16H-Dipyrrolo[2,1-C:2′,1′-L][1]Oxa 1[4,7,10,13]Tetraazacyclohexadecin-17-Yl)-2-(3-(4-(Trifluoromethoxy)Phenyl)Ureido)Propanamide], for which the midpoint of the response in data set [1], the EC50, lay at 0.19 ± 0.01 µM. The compound further came in with an IC50 in data set [2] of 5.6 ± 0.2 µM. The compound further gave an IC50 at 72 h in data set [4] of 16.1 ± 2.4 µM. Besides, the MIC in data set [5] (setting [6]) came out at 0.029 µM (≈ 0.0247 µg/mL).
Regarding `C[C@H]1CC2C(=O)O[C@@H](C)[C@H](NC(=O)[C@H](Cc3cc(F)cc(F)c3)NC(=O)Nc3ccc(OC(F)(F)F)cc3)C(=O)N3CCCC3C(=O)N3CCOCC3C(=O)N[C@@H](C)C(=O)N2C1` (stereo partly drawn) [Compound 34, (S)-3-(3,5-Difluorophenyl)-2-(3-(4-(Trifluoromethoxy)Phenyl)Ureido)-N-((6aS,12S,13S,15aS,17S,21S,23aS)-13,17,21-Trimethyl-6,11,15,20,23-Pentaoxooctadecahydro-6H,11H,15H-[1,4]Oxazino[3,4-I]Dipyrrolo[2,1-C:2′,1′-L][1]Oxa[4,7,10,13]Tetraazacyclohexadecin-12-Yl)Propanamide] ({NH(4-OCF3-phenyl)-CO}-[Phe(3,5-F2)][aThr][ξP][X1]A[ξPro(4S-Me)]; ester 2-C), the EC50 in data set [1] is 0.33 ± 0.01 µM. In addition, the IC50 in data set [2] is 6.1 ± 0.4 µM. The “Minimal Inhibitory Concentration S. aureus USA 300 ΔClpP” value in data set [3] was determined as 50 µM. Half-maximal inhibition in data set [4] (IC50 at 72 h) required 26 ± 2.6 µM. In addition, the MIC in data set [5] (setting [6]) is 0.049 µM (≈ 0.0431 µg/mL).
Consider `CN[C@@H]1[C@H](O)[C@H](NC)[C@H]2O[C@@]3(O)C(=O)C[C@@H](C)O[C@H]3O[C@@H]2[C@H]1O` [Spectinomycin, spectinomycin, reference compound], for which the “Minimal Inhibitory Concentration S. aureus USA 300 ΔClpP” value in data set [3] is 25 µM. In data set [5] (Streptococcus pneumoniae, R6, read-out: Minimal Inhibitory Concentration S. pneumoniae R6), the MIC turned out to be 6.3 µM (≈ 2.09 µg/mL).
